Patent US11312719B2, “9-substituted amino triazolo quinazoline derivatives as adenosine receptor antagonists, pharmaceutical compositions and their use” (Merck Sharp & Dohme Corp., priority 2018, dated 2022)

Experiments:
[1] = target: human A2A receptors (Homo sapiens (Human), UniProt P29274); assay: A2A antagonism in cAMP cell-based assay (LANCE cAMP, HEK293); settings: HEK293 cells expressing human A2A receptor
Procedure, shortened: (§1)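 HEK293 cells expressing human A2A or A2B, in HBSS/5 mM HEPES/200 nM rolipram, were preincubated with compound (0.5–10,000 nM, 0.25% DMSO) 30 min at 37° C. Adenosine was then added from 300 nM (A2A) or 600 nM (A2B) solution for 30 min.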

[2] = target: human A2B receptors (Homo sapiens (Human), UniProt P29275); assay: A2B antagonism in cAMP cell-based assay (LANCE cAMP, HEK293); settings: HEK293 cells expressing human A2B receptor
Procedure, shortened: as §1

Chain of human A2B receptors (P29275 whole entry): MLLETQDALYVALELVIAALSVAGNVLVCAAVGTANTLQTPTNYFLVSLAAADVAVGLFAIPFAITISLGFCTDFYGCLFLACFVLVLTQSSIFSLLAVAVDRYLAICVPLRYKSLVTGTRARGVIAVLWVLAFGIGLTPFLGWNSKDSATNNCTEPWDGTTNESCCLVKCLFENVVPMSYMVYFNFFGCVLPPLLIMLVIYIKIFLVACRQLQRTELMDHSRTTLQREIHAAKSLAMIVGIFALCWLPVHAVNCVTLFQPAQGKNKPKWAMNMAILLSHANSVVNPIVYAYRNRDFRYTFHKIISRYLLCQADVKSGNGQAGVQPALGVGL
Chain of human A2A receptors (P29274 whole entry): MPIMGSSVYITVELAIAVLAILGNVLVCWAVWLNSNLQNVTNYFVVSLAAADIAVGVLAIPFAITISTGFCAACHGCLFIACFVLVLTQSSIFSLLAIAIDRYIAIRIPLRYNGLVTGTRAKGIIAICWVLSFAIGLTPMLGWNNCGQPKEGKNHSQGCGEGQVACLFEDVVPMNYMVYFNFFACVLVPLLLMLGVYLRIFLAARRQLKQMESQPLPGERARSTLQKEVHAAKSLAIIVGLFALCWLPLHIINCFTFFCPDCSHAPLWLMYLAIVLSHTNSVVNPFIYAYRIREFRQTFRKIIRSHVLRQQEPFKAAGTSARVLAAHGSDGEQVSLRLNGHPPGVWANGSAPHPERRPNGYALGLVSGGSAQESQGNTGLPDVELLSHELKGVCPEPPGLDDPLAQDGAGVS

IC50 [1] [nM]	IC50 [2] [nM]	A2B cAMP % Inh. @10000 nM ([2]; at 10000 nM) [% Inh.]	SMILES
1	5.1	–	COc1cc2nc(N)n3nc(C4CCC(C)N(c5cnn(C(C)C(C)O)c5)C4)nc3c2cc1F (single isomer, unassigned) [Example 236, (2S,3R or 2R,3S)-3-(4-((2S,5R or 2R,5S)-5-(5-amino-9-fluoro-8-methoxy-[1,2,4]triazolo[1,5-c]quinazolin-2-yl)-2-methylpiperidin-1-yl)-1H-pyrazol-1-yl)butan-2-ol]
0.8	8.7	–	COc1cc2nc(N)n3nc(C4CCC(C)N(c5cnn(C(C)C(C)O)c5)C4)nc3c2cc1F (single isomer, unassigned) [Example 237, (2R,3S or 2S,3R)-3-(4-((2S,5R or 2R,5S)-5-(5-amino-9-fluoro-8-methoxy-[1,2,4]triazolo[1,5-c]quinazolin-2-yl)-2-methylpiperidin-1-yl)-1H-pyrazol-1-yl)butan-2-ol]
21.8	2440	–	COc1cc2nc(N)n3nc(C4CCC(C)N(c5cnn(C(C)C(C)O)c5)C4)nc3c2cc1F (single isomer, unassigned) [Example 238, (2S,3R or 2R,3S)-3-(4-((2R,5S or 2S,5R)-5-(5-amino-9-fluoro-8-methoxy-[1,2,4]triazolo[1,5-c]quinazolin-2-yl)-2-methylpiperidin-1-yl)-1H-pyrazol-1-yl)butan-2-ol]
75.1	–	10	COc1cc2nc(N)n3nc(C4CCC(C)N(c5cnn(C(C)C(C)O)c5)C4)nc3c2cc1F (single isomer, unassigned) [Example 239, (2R,3S or 2S,3R)-3-(4-((2R,5S or 2S,5R)-5-(5-amino-9-fluoro-8-methoxy-[1,2,4]triazolo[1,5-c]quinazolin-2-yl)-2-methylpiperidin-1-yl)-1H-pyrazol-1-yl)butan-2-ol]
2	34.9	–	COc1cc2nc(N)n3nc([C@@H]4CCCN(c5cnn(C(C)(C)C(C)O)c5)C4)nc3c2cc1F (single isomer, unassigned) [Example 242, (R or S)-3-(4-((R)-3-(5-amino-9-fluoro-8-methoxy-[1,2,4]triazolo[1,5-c]quinazolin-2-yl)piperidin-1-yl)-1H-pyrazol-1-yl)-3-methylbutan-2-ol]
2.6	50.7	–	COc1cc2nc(N)n3nc([C@@H]4CCCN(c5cnn(C(C)(C)C(C)O)c5)C4)nc3c2cc1F (single isomer, unassigned) [Example 243, (S or R)-3-(4-((R)-3-(5-amino-9-fluoro-8-methoxy-[1,2,4]triazolo[1,5-c]quinazolin-2-yl)piperidin-1-yl)-1H-pyrazol-1-yl)-3-methylbutan-2-ol]
0.9	18.8	–	COc1cc(F)cc2c1nc(N)n1nc([C@@H]3CCCN(c4cnn(C(C)(C)C(C)O)c4)C3)nc21 (single isomer, unassigned) [Example 244, (R or S)-3-(4-((R)-3-(5-amino-9-fluoro-7 methoxy-[1,2,4]triazolo[1,5-c]quinazolin-2-yl)piperidin-1-yl)-1H-pyrazol-1-yl)-3-methylbutan-2-ol]
2	25.8	–	COc1cc(F)cc2c1nc(N)n1nc([C@@H]3CCCN(c4cnn(C(C)(C)C(C)O)c4)C3)nc21 (single isomer, unassigned) [Example 245, (S or R)-3-(4-((R)-3-(5-amino-9-fluoro-7 methoxy-[1,2,4]triazolo[1,5-c]quinazolin-2-yl)piperidin-1-yl)-1H-pyrazol-1-yl)-3-methylbutan-2-ol]
3.2	21.3	–	CC(O)C(C)(C)n1cc(N2CCC[C@@H](c3nc4c5cc(F)cc(F)c5nc(N)n4n3)C2)cn1 (single isomer, unassigned) [Example 246, (R or S)-3-(4-((R)-3-(5-amino-7,9-difluoro-[1,2,4]triazolo [1,5-c]quinazolin-2-yl)piperidin-1-yl)-1H-pyrazol-1-yl)-3-methylbutan-2-ol]
